The source of these data is publication PMC4196226 (mBio, 2014).

Common to all, as to format: cell-based
The test system of one test is S. maltophilia. Description: MIC assay. The note with it: Stenotrophomonas maltophilia.
The subject of the next test is A. baumannii. Description: MIC assay. The note with it: Acinetobacter baumannii.
A further test concerns P. aeruginosa. Description: microbe, parasite or virus in culture. The note with it: Pseudomonas aeruginosa.
In another test the test system is K. pneumoniae. Description: microbe, parasite or virus in culture. The note with it: Klebsiella pneumoniae.
The subject of a further test is B. cepacia. The test can be described thus: MIC assay. The note with it: Burkholderia cepacia.

The structures appear in SMILES notation. In brackets after ≈: the same amount, converted by molar mass. Where only a bound is given, the exact number is not on record here.

As for `C[C@@H](O)[C@H]1C(=O)N2C(C(=O)O)=C(S[C@@H]3CN[C@H](C(=O)N(C)C)C3)[C@H](C)[C@H]12` [MPM, meropenem], the MIC90 was more than 64 µg/mL against S. maltophilia; 32 µg/mL (≈ 83.4 µM) in the test with A. baumannii; more than 64 µg/mL with P. aeruginosa; 32 µg/mL (≈ 83.4 µM) with K. pneumoniae; 8 µg/mL (≈ 20.9 µM) in the test with B. cepacia.
